Article PMC7737769, “Pharmacological inhibition of syntenin PDZ2 domain impairs breast cancer cell activities and exosome loading with syndecan and EpCAM cargo” (Journal of Extracellular Vesicles, 2020)

Columns and labels:
Erbin‐Erbb2 complex = test system: T1, Erbin‐Erbb2 complex; test: HTRF assay, Erbin-ERBB2 interaction; format: biochemical, human; conditions: 400µM compound; Figure 1c
T1 construct: human Erbin PDZ domain; made in house; host or cells: E. coli BL21 (DE3)
Protocol: HTRF assays were performed in white 96Well Small VolumeHiBase Polystyrene Microplates (Greiner) with a total working volume of […], as described previously (Milhas et al., 2016). Briefly, compounds were firstly dispensed into the wells at 400 µM for the primary screen or with serial DMSO dilutions for IC50 measurement assays. Primary screening assays have been performed in monoplicate while IC50 measurements were performed in triplicates. All HTRF reagents were purchased from CisBio Bioassays and reconstituted according to the supplier protocols. The plates were spun for 3 min at 500 × g and then incubated at 4°C for 16 h. The HTRF signals were recorded on a POLAR star Omega plate reader (BMG Labtech) with an excitation filter at 337 nm and fluorescence wavelength measurement at 620 and 665 nm, an integration delay of 60 µs and an integration time of 400 µs. Results were analysed with a two‐wavelength signal ratio: [intensity (665 nm)/intensity (620 nm)] × 10^4. Percentage of inhibition was calculated using the following equation: % inhibition = [(compound signal)–(min signal)]/[(max signal)–(min signal)] × 100, where ‘max signal’ is the signal ratio with the compound vehicle alone (DMSO) and ‘min signal’ the signal ratio without protein B. For IC50 measurements, values were normalized and fitted with Prism (GraphPad software) using the following equation: Y = 100/(1+((X/ IC50)ˆHill slope)).
The search strategy for PDZ2 syntenin inhibitors was based on the PDZ targeted library developed from Enamine compound collection. The PDZ targeted library was developed to cover virtually all PDZ domains. Consequently, to create the syntenin PDZ2 focused library we used two independent paths: docking of the PDZ targeted library against structures of syntenin PDZ2 available in Protein Data Bank and a random selection from the PDZ targeted library. The docking has produced 21 virtual hits, which were added to 118 randomly selected compounds (10% of the pan PDZ library). The resultant set of 139 compounds, syntenin PDZ library was subjected to experimental validation. The primary screen was performed at 400µM using a previously validated Homogeneous Time Resolved Fluorescence (HTRF) assay (Milhas et al., 2016). HTRF is based on Fluorescence Resonance Energy Transfer (FRET) between two fluorescent reagents. In the present case, Anti‐GST‐Terbium antibody and streptavidin‐bound Dynamic2 were used as donor and acceptor respectively. Interactions between GST PDZ‐fusion proteins and biotinylated peptides containing PDZ binding motifs were challenged with the potential inhibitors. In parallel, control experiments were performed with a biotinylated‐GST to verify that compounds were not interfering with the FRET signal in a non‐specific manner. To identify inhibitors of syntenin PDZ interactions, we tested for the effect of the 139 compounds on syntenin‐SDC2 and syntenin‐Frizzled7 complexes (Figure 1a; Table S1). When the HTRF signal dropped below 0.9, inhibition was considered as effective. […] Noteworthy, these compounds had no effect on other PDZ complexes like GRASP55‐JAM‐B or GRASP55‐JAM‐C and Erbin‐Erbb2 or Erbin‐P0071 (Figure 1c).

MCF‐7 SyntKO cells [1] = test: Cancer cell viability (Annexin V/7-AAD flow cytometry), MCF-7 SyntKO; format: cell-based; conditions: concentrations up to 100 µM, 48 h
Protocol: The effects of the compounds C58 and SyntOFF were tested both on MCF‐7 and MCF‐7 SyntKO cells. Briefly, the cells were treated with increasing concentrations of the compounds for 48 h and early/late apoptosis was measured by using the FITC Annexin V apoptosis detection kit with 7‐AAD (Biolegend, San Diego, CA, USA) according to the manufacturer. Annexin V positive but 7‐AAD negative (early apoptotic cells) and Annexin V positive and 7‐AAD positive (late stage apoptosis) was determined by using FACS LSRII flow cytometer (BD Biosciences) and data were analysed with Flowjo software (Tree Star).

MCF‐7 SyntKO cells [2] = test: Wound-healing (migration) assay, MCF-7 SyntKO; format: cell-based; conditions: 100 µM, 24 h
Protocol: For migration assays, cells were treated with 1 ng/ml of mitomycin (Sigma M4287) overnight to inhibit cell division. Treated cells were plated in Ibidi culture‐inserts (Ibidi Cat‐80206) for 12 h to reach 90%–95% of confluence with or without compounds (100 µM). A wound was created by removing inserts from the dishes. Medium with or without compounds (100 µM) was refreshed to remove dead cells and the cells were observed under an inverted light microscope (Leica SP2) equipped with a camera. Images were taken by MetaMorph software every 10 min for 24 h. Measurements of cell velocity were calculated using the MetaMorph software.

MCF‐7 cells = test: Soft agar colony formation assay; format: cell-based; conditions: wild-type MCF-7, 100 µM
Protocol: Agarose was melted in water and mixed with DMEM‐F12 medium pre‐incubated at 37°C to reach a 0.6% or a 0.36 % final concentration. A lower layer of 0.6% agarose was deposited in each well of a 96‐well plate except that the first and last rows and columns of the plate were filled with PBS to avoid drying. Agarose was allowed to cool for 15 min before the upper layer containing different concentrations of cells, a final concentration of 0.36% agarose and compounds (100 µM) was added. Compounds were added only once at the beginning of experiment. Each condition was tested in triplicate. Colonies were kept at 37°C in a 5% CO2 incubator and daily observed under microscope. At the end of the experiment, cells were tested for their ATP content, an indicator of their metabolic activity, using the Promega kit G7570. In this assay, ATP is used as a co‐factor for a luciferase reaction. Signals were analysed by measuring luminescence with a LUMIstar luminometer (BMG Labtech).

CC(C)[C@H](NC(=O)CSc1ccc(Cl)cc1)C(=O)O [Compound C58]
GST-Erbin ERBB2 (signal ratio) (Erbin‐Erbb2 complex): 1.01 | toxicity (cell viability) (MCF‐7 SyntKO cells [1]): not toxic | cell migration (wound closure) (MCF‐7 SyntKO cells [2]): no such effect | colony formation in soft agar (MCF‐7 cells): decreases
